According to BigSolDB 2.1:

CN1c2ccccc2C(=O)N2CCc3c([nH]c4ccccc34)[C@H]21
solubility (mole fraction) (in acetone, 283.2 K): 0.000216
solubility (mole fraction) (in acetone, 293.2 K): 0.000303
solubility (mole fraction) (in acetone, 303.2 K): 0.00038
solubility (mole fraction) (in acetone, 313.2 K): 0.000513
solubility (mole fraction) (in acetone, 323.2 K): 0.000676
solubility (mole fraction) (in chloroform, 283.2 K): 0.000683
solubility (mole fraction) (in chloroform, 293.2 K): 0.000876
solubility (mole fraction) (in chloroform, 303.2 K): 0.00105
solubility (mole fraction) (in chloroform, 313.2 K): 0.00135
solubility (mole fraction) (in chloroform, 323.2 K): 0.00183
solubility (mole fraction) (in cyclohexane, 283.2 K): 1.68e-06
solubility (mole fraction) (in cyclohexane, 293.2 K): 2.81e-06
solubility (mole fraction) (in cyclohexane, 303.2 K): 4.49e-06
solubility (mole fraction) (in cyclohexane, 313.2 K): 6.47e-06
solubility (mole fraction) (in cyclohexane, 323.2 K): 9.36e-06
solubility (mole fraction) (in dichloromethane, 283.2 K): 0.000334
solubility (mole fraction) (in dichloromethane, 288.2 K): 0.00037
solubility (mole fraction) (in dichloromethane, 293.2 K): 0.000417
solubility (mole fraction) (in dichloromethane, 298.2 K): 0.00048
solubility (mole fraction) (in dichloromethane, 303.2 K): 0.000571
solubility (mole fraction) (in diethyl ether, 283.2 K): 4.06e-05
solubility (mole fraction) (in diethyl ether, 288.2 K): 5.16e-05
solubility (mole fraction) (in diethyl ether, 293.2 K): 6.93e-05
solubility (mole fraction) (in diethyl ether, 298.2 K): 7.51e-05
solubility (mole fraction) (in diethyl ether, 303.2 K): 9.09e-05
solubility (mole fraction) (in ethanol, 283.2 K): 6.12e-05
solubility (mole fraction) (in ethanol, 293.2 K): 8.02e-05
solubility (mole fraction) (in ethanol, 303.2 K): 0.000116
solubility (mole fraction) (in ethanol, 313.2 K): 0.000173
solubility (mole fraction) (in ethanol, 323.2 K): 0.000257
solubility (mole fraction) (in ethyl acetate, 283.2 K): 0.000135
solubility (mole fraction) (in ethyl acetate, 293.2 K): 0.000165
solubility (mole fraction) (in ethyl acetate, 303.2 K): 0.000255
solubility (mole fraction) (in ethyl acetate, 313.2 K): 0.000321
solubility (mole fraction) (in ethyl acetate, 323.2 K): 0.000412
solubility (mole fraction) (in isopropanol, 283.2 K): 7e-05
solubility (mole fraction) (in isopropanol, 293.2 K): 8.69e-05
solubility (mole fraction) (in isopropanol, 303.2 K): 0.000119
solubility (mole fraction) (in isopropanol, 313.2 K): 0.000181
solubility (mole fraction) (in isopropanol, 323.2 K): 0.000287
solubility (mole fraction) (in methanol, 283.2 K): 3.52e-05
solubility (mole fraction) (in methanol, 293.2 K): 5.19e-05
solubility (mole fraction) (in methanol, 303.2 K): 7.24e-05
solubility (mole fraction) (in methanol, 313.2 K): 0.00011
solubility (mole fraction) (in methanol, 323.2 K): 0.000176
solubility (mole fraction) (in n-butanol, 283.2 K): 0.000112
solubility (mole fraction) (in n-butanol, 293.2 K): 0.000139
solubility (mole fraction) (in n-butanol, 303.2 K): 0.000216
solubility (mole fraction) (in n-butanol, 313.2 K): 0.000317
solubility (mole fraction) (in n-butanol, 323.2 K): 0.000458
solubility (mole fraction) (in n-hexane, 283.2 K): 1.05e-06
solubility (mole fraction) (in n-hexane, 293.2 K): 1.66e-06
solubility (mole fraction) (in n-hexane, 303.2 K): 2.61e-06
solubility (mole fraction) (in n-hexane, 313.2 K): 4.37e-06
solubility (mole fraction) (in n-hexane, 323.2 K): 5.84e-06
solubility (mole fraction) (in n-pentane, 283.2 K): 1.59e-06
solubility (mole fraction) (in n-pentane, 288.2 K): 2.2e-06
solubility (mole fraction) (in n-pentane, 293.2 K): 2.92e-06
solubility (mole fraction) (in n-pentane, 298.2 K): 3.79e-06
solubility (mole fraction) (in n-pentane, 303.2 K): 4.7e-06
